Tested on: β-catenin transcriptional activity (pTOPFLASH reporter) in 293T cells
Experiment: TOPFLASH β-catenin luciferase reporter assay in transfected 293T cells
Format: cell-based, human
Settings: NAM added eight hours after transfection, harvested 24 h post-transfection, normalized to Renilla luciferase, FIG. 4F

NC(=O)c1cccnc1 [nicotinamide]
luciferase reporter activity (pTOPFLASH β-catenin reporter): increased luciferase reporter activity

— US20110009474A1, “SIRTUIN BASED METHODS AND COMPOSITIONS FOR TREATING BETA-CATENIN-RELATED CONDITIONS” (President and Fellows of Harvard College, priority 2007, published 2011)
